Earlier results, collected in patent US20050026902A1, “Methods and compositions for the treatment or prevention of human immunodeficiency virus and related conditions using cyclooxygenase-2 selective inhibitors and antiviral agents” (priority 2003, published 2005).
Read-outs that look alike come from different tables or passages of the source.

Key:
[1] = molecular target: HIV-1 RT from the HxB2 clone (RT-SHIV) (Human immunodeficiency virus type 1 group M subtype B, UniProt P04585); details: in vitro tests
[2] = human, in vivo
RT-SHIV = details: in vitro tests
[3] = human, in vivo, po
[4] = human, in vivo, po; remark: listed apart in the source

Row | SMILES | Food Effect [2] | Food Effect [3] | Food Effect [4] | also measured
1 | Cc1ccnc2c1NC(=O)c1cccnc1N2C1CC1 [Nevirapine, nevirapine] | None |  |  | inhibition of the RT activity of RT-SHIV [1]: could inhibit; inhibition of replication of RT-SHIV (RT-SHIV): could inhibit
2 | CC(C)Nc1cccnc1N1CCN(C(=O)c2cc3cc(NS(C)(=O)=O)ccc3[nH]2)CC1 [Delavirdine] | None |  |  | 
3 | Nc1ccn([C@H]2CC[C@@H](CO)O2)c(=O)n1 [Zalcitabine] |  | None |  | 
4 | Nc1nc(NC2CC2)c2ncn([C@H]3C=C[C@@H](CO)C3)c2n1 [Abacavir] |  | None |  | 
5 | Cc1cn([C@H]2C=C[C@@H](CO)O2)c(=O)[nH]c1=O [Stavudine] |  | None |  | 
6 | CC(C)c1nc(CN(C)C(=O)N[C@H](C(=O)N[C@@H](Cc2ccccc2)C[C@H](O)[C@H](Cc2ccccc2)NC(=O)OCc2cncs2)C(C)C)cs1 [Ritonavir, ritonavir] |  |  | Take with food if possible | 
7 | Cc1cn([C@H]2C[C@H](N=[N+]=[N-])[C@@H](CO)O2)c(=O)[nH]c1=O [Zidovudine] |  | None |  | 
8 | Cc1c(O)cccc1C(=O)N[C@@H](CSc1ccccc1)[C@H](O)CN1C[C@H]2CCCC[C@H]2C[C@H]1C(=O)NC(C)(C)C [Nelfinavir, nelfinavir] |  |  | Take with food if possible | 
9 | O=C1Nc2ccc(Cl)cc2[C@@](C#CC2CC2)(C(F)(F)F)O1 [Efavirenz] | Avoid taking |  |  | 
10 | CC(C)CN(C[C@@H](O)[C@H](Cc1ccccc1)NC(=O)O[C@H]1CCOC1)S(=O)(=O)c1ccc(N)cc1 [Amprenavir] |  |  | Avoid taking | 
